Assay results: patent US8598344B2, “CDKI pathway inhibitors and uses thereof” (Senex Biotechnology, priority 2009, dated 2013)
Where two headings read alike, the source gives them in different places.

Tests used:
[1] = test system: induction of transcription by p21 (CDKI pathway, CMV promoter-GFP) in HT1080 fibrosarcoma cells; assay: Cellular assay for CDKI pathway inhibition: CMV-GFP induction by IPTG-inducible p21 in HT1080 reporter cells; format: cell-based, human
Method: Briefly, the reporter cell line described in the above-referenced application, which carries IPTG (isopropyl-β-thio-galactoside)-inducible p21 gene together with a p21-inducible promoter driving the expression of Green Fluorescent Protein (GFP) was plated in 96-well plates, at 2000 cells per well for the no-IPTG arm of the assay and at 5000 cells per well for the IPTG arm of the assay. To induce the maximal levels of p21, IPTG was added to 50 μM concentration. Serial 2-fold dilutions of the tested compounds were added in quadruplicates to wells with and without IPTG, ˜10 min after IPTG addition.
This assay is based on the induction of green fluorescent protein (GFP) expression from the cytomegalovirus (CMV) promoter in human HT1080 fibrosarcoma cells that express CDKI p21 from an isopropyl-(3-thio-galactoside (IPTG)-inducible promoter. The compound activity as a CDKI pathway inhibitor is measured by its ability to prevent the stimulation of the CMV promoter upon the addition of p21-inducing IPTG. CMV promoter activity is measured by the ratio of GFP fluorescence to the relative cell number, as determined by staining cellular DNA with Hoechst 33342. This assay was conducted in two modes. […]

[2] = test system: human umbilical vein endothelial cells (HUVECs); conditions: Aoki et al., 2007; read-out: IC50, proliferation of HUVECs; cited from earlier work
[3] = test system: several other types of human cells; conditions: Aoki et al., 2007; read-out: antiproliferative activity against several other types of human cells; cited from earlier work
CDK19 [4] = target: T1, CDK19 (Homo sapiens, UniProt Q9BWU1); conditions: cited from earlier work
T1 construct: purchased KinomeScan, a division of Ambit Biosciences
T1 sequence (Q9BWU1 whole entry): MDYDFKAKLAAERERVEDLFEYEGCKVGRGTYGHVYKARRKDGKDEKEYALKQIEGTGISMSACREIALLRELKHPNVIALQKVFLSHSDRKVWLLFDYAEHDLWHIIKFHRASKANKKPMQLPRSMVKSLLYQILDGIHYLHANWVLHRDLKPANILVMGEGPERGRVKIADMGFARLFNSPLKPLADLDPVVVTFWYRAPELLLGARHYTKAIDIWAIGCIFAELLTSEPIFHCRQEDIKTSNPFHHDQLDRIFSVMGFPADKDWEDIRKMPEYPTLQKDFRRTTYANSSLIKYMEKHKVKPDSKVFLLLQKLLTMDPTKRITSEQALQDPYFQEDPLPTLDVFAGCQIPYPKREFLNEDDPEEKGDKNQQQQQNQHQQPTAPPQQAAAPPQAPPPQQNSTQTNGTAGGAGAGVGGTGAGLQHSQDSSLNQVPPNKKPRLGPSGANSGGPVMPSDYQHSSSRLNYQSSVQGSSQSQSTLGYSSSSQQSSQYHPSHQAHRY

CLK4 = target: T2, CLK4 (Homo sapiens, UniProt Q9HAZ1); conditions: 10 μM; data from Cee et al. (2009); cited from earlier work
T2 construct: purchased KinomeScan, a division of Ambit Biosciences

CIT = target: T3, CIT (Homo sapiens, UniProt O14578); conditions: 10 μM; data from Cee et al. (2009); cited from earlier work
T3 construct: purchased KinomeScan, a division of Ambit Biosciences

ROCK2 = target: T4, ROCK2 (Homo sapiens, UniProt O75116); conditions: cited from earlier work
T4 construct: purchased KinomeScan, a division of Ambit Biosciences
T4 sequence (O75116 whole entry): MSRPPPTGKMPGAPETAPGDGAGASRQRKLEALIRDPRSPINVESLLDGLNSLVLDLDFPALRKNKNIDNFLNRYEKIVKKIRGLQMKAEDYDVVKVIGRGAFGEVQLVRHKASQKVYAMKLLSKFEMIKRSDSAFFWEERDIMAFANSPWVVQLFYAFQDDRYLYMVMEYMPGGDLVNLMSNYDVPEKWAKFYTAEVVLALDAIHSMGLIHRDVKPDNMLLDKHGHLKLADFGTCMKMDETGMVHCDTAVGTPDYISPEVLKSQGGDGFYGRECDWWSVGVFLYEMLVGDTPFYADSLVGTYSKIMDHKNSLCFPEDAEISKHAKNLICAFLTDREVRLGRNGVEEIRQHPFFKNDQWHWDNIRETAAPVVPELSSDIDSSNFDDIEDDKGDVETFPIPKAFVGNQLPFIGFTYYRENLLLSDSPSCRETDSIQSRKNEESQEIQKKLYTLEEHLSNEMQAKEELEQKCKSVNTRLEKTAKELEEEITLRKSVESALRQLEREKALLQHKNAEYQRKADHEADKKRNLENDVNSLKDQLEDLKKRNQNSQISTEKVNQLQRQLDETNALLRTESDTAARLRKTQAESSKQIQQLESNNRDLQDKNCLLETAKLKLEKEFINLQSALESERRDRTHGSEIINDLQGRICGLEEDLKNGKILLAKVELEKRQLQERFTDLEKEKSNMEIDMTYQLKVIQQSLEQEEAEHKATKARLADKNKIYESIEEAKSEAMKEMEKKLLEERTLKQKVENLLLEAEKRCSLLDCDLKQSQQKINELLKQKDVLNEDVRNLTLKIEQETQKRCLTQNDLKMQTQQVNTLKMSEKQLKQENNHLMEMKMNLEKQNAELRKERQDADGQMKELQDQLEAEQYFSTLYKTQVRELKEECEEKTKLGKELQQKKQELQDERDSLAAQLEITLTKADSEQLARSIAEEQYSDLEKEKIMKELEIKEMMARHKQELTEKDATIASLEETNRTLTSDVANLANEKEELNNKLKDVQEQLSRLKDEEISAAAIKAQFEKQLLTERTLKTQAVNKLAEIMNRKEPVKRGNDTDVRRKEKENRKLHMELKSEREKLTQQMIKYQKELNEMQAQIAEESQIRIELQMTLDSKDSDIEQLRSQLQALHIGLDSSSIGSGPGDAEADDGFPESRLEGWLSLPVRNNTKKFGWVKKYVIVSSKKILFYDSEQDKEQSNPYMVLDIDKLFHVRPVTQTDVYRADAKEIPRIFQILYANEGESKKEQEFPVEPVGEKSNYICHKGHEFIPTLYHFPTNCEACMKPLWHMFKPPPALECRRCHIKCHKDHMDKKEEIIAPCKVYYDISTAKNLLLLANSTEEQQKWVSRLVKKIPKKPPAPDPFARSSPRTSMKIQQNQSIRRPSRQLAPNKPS

LTK = target: T5, LTK (Homo sapiens, UniProt P29376); conditions: 10 μM; data from Cee et al. (2009); cited from earlier work
T5 construct: purchased KinomeScan, a division of Ambit Biosciences

ALK = target: T6, ALK (Homo sapiens, UniProt Q9UM73); conditions: 10 μM; data from Cee et al. (2009); cited from earlier work
T6 construct: purchased KinomeScan, a division of Ambit Biosciences

PIM2 = target: T7, PIM2 (Homo sapiens, UniProt Q9P1W9); conditions: 10 μM; data from Cee et al. (2009); cited from earlier work
T7 construct: purchased KinomeScan, a division of Ambit Biosciences

PKACa = target: T8, PKACa (Homo sapiens, UniProt P17612); conditions: 10 μM; data from Cee et al. (2009); cited from earlier work
T8 construct: purchased KinomeScan, a division of Ambit Biosciences

PKACb = target: T9, PKACb (Homo sapiens, UniProt P22694); conditions: 10 μM; data from Cee et al. (2009); cited from earlier work
T9 construct: purchased KinomeScan, a division of Ambit Biosciences

MET = target: T10, MET (Homo sapiens, UniProt P08581); conditions: 10 μM; data from Cee et al. (2009); cited from earlier work
T10 construct: purchased KinomeScan, a division of Ambit Biosciences

PRKG2 = target: T11, PRKG2 (Homo sapiens, UniProt Q13237); conditions: 10 μM; data from Cee et al. (2009); cited from earlier work
T11 construct: purchased KinomeScan, a division of Ambit Biosciences
T11 sequence (Q13237 whole entry): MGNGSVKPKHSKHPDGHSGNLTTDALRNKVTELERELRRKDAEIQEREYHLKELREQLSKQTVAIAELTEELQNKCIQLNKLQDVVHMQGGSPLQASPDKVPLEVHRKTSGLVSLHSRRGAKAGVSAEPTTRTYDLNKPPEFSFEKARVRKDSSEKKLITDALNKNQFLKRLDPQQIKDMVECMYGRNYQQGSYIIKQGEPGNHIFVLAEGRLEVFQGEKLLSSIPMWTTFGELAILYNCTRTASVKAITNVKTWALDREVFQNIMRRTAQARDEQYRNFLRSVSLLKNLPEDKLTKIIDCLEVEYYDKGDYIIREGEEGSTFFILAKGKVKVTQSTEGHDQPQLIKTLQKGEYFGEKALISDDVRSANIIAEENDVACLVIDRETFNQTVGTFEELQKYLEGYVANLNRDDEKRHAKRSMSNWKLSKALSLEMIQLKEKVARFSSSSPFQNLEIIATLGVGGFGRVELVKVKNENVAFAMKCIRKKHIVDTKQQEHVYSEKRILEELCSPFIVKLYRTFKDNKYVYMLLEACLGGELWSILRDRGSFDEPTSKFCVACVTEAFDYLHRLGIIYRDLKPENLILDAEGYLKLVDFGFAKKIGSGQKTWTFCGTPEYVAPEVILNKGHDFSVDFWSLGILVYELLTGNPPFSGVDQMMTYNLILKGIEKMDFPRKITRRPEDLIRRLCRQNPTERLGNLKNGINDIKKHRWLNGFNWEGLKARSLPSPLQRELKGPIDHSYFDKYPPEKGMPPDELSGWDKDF

RIOK2 = target: T12, RIOK2 (Homo sapiens, UniProt Q9BVS4); conditions: 10 μM; data from Cee et al. (2009); cited from earlier work
T12 construct: purchased KinomeScan, a division of Ambit Biosciences

ROCK1 = target: T13, ROCK1 (Homo sapiens, UniProt Q13464); conditions: cited from earlier work
T13 construct: purchased KinomeScan, a division of Ambit Biosciences
T13 sequence (Q13464 whole entry): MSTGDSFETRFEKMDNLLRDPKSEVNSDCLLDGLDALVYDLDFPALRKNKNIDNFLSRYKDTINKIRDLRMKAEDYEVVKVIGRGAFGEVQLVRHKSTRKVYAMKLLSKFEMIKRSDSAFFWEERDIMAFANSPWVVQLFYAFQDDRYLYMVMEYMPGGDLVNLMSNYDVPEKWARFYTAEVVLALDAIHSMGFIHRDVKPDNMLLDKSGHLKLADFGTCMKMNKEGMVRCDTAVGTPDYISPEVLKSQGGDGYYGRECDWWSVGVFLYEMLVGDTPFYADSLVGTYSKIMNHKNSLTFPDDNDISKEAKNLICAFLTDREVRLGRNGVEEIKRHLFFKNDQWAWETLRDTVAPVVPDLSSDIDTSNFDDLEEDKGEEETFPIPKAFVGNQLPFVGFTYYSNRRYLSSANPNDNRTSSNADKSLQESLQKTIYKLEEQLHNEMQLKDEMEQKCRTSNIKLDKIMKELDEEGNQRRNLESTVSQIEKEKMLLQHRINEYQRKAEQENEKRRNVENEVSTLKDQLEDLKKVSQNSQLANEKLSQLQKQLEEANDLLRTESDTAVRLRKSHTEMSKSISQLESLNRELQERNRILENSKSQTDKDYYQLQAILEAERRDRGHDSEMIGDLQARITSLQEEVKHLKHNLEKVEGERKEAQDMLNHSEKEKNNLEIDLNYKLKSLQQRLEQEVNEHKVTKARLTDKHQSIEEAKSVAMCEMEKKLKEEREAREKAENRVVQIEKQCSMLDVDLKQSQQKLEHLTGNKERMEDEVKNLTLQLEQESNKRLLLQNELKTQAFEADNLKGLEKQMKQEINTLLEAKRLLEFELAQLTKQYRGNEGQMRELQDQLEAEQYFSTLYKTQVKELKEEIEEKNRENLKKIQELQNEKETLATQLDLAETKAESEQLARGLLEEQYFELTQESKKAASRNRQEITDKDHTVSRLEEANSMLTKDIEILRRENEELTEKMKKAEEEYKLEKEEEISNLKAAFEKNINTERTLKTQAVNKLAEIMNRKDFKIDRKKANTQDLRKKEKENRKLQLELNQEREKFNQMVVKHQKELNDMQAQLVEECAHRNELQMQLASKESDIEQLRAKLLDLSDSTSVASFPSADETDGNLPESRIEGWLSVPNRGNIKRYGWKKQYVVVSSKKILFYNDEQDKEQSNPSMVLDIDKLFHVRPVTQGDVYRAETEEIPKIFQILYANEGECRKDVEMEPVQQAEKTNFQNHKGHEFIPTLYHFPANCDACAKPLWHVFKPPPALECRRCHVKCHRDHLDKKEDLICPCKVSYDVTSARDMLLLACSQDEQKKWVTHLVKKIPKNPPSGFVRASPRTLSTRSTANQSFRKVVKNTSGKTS

ROS1 = target: T14, ROS1 (Homo sapiens, UniProt P08922); conditions: 10 μM; data from Cee et al. (2009); cited from earlier work
T14 construct: purchased KinomeScan, a division of Ambit Biosciences

JNK1 = target: T15, JNK1 (Homo sapiens, UniProt P45983); conditions: 10 μM; data from Cee et al. (2009); cited from earlier work
T15 construct: purchased KinomeScan, a division of Ambit Biosciences

CDK19 [5] = target: T1, CDK19; assay: KinomeScan competition binding assay; conditions: read-out: CDK19 inhibition (Kd)
Excerpt: (§1) This similarity led us to test SNX14 for the ability to inhibit 285 kinases, using the services of KinaseProfiler of Millipore Corporation (285 kinases). […] The KINOMEscan assay has been described in detail in Fabian et al., Nat. Biotechnol. 23: 329 (2005) and Karaman et al., Nat. Biotechnol. 26: 127 (2008).
(§2) The KinomeScan assay is based on a competition binding assay that quantitatively measures the ability of a compound to compete with an immobilized, ATP site directed ligand. The assay is performed by combining three components: DNA-tagged kinase; immobilized ligand; and a test compound. The ability of the test compound to compete with the immobilized ligand is measured via quantitative PCR of the DNA tag. […] The CDKs tested by Millipore for inhibition with SNX14 included CDK1, CDK2, CDK3, CDK5, CDK7 and CDK9; none of these were inhibited to less than 49 percent of control (POC) activity. The CDKs tested by KinomeScan for the effect of Compound 1 included CDK2, CDK3, CDK4, CDK5, CDK7, CDK8, CDK9 and CDK19; aside from CDK8 and CDK19, the strongest inhibited CDK was CDK7 (33% POC binding). To determine the inhibition of which kinases correlates with the biological activity of SNX2-class compounds, we tested eight additional compounds of the SNX2 family, which gave different IC50 values in the cellular assays, for the ability to affect 24 kinases that were most susceptible to compound 1, through the services of KinomeScan. […] We have also determined the binding constant (Kd) for SNX14, compound 1, compound 20, compound 26, compound 43 and compound 14 in kinase assays for CDK8 and CDK19 (Table 1).

CDK8 = target: T16, CDK8 (Homo sapiens, UniProt P49336); assay: KinomeScan competition binding assay; conditions: read-out: CDK8 inhibition (Kd)
T16 construct: purchased KinomeScan, a division of Ambit Biosciences
Excerpt: as §1, §2

CDK1 = target: T17, CDK1 (Homo sapiens, UniProt P06493); assay: KinaseProfiler (Millipore) kinase inhibition; format: biochemical; conditions: 10 μM
T17 construct: purchased KinaseProfiler of Millipore Corporation
Excerpt: as §1, §2

CDK2 = target: T18, CDK2 (Homo sapiens, UniProt P24941); assay: KinaseProfiler (Millipore) kinase inhibition; format: biochemical; conditions: 10 μM
T18 construct: purchased KinaseProfiler of Millipore Corporation
Excerpt: as §1, §2

CDK3 = target: T19, CDK3 (Homo sapiens, UniProt Q00526); assay: KinaseProfiler (Millipore) kinase inhibition; format: biochemical; conditions: 10 μM
T19 construct: purchased KinaseProfiler of Millipore Corporation
Excerpt: as §1, §2

CDK5 = target: T20, CDK5 (Homo sapiens, UniProt Q00535); assay: KinaseProfiler (Millipore) kinase inhibition; format: biochemical; conditions: 10 μM
T20 construct: purchased KinaseProfiler of Millipore Corporation
Excerpt: as §1, §2

CDK9 = target: T21, CDK9 (Homo sapiens, UniProt P50750); assay: KinaseProfiler (Millipore) kinase inhibition; format: biochemical; conditions: 10 μM
T21 construct: purchased KinaseProfiler of Millipore Corporation
T21 sequence (P50750 whole entry): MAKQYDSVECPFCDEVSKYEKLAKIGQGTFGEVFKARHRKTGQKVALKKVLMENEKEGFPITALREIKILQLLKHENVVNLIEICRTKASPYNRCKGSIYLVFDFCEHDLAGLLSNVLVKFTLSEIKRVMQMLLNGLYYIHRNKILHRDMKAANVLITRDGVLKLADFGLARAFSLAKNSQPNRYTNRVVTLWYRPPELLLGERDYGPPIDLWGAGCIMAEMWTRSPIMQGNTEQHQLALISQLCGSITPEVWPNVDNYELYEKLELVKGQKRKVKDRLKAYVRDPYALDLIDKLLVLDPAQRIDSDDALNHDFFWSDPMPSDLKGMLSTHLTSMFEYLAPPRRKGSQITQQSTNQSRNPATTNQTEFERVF
T21 sequence (O60563 whole entry partner): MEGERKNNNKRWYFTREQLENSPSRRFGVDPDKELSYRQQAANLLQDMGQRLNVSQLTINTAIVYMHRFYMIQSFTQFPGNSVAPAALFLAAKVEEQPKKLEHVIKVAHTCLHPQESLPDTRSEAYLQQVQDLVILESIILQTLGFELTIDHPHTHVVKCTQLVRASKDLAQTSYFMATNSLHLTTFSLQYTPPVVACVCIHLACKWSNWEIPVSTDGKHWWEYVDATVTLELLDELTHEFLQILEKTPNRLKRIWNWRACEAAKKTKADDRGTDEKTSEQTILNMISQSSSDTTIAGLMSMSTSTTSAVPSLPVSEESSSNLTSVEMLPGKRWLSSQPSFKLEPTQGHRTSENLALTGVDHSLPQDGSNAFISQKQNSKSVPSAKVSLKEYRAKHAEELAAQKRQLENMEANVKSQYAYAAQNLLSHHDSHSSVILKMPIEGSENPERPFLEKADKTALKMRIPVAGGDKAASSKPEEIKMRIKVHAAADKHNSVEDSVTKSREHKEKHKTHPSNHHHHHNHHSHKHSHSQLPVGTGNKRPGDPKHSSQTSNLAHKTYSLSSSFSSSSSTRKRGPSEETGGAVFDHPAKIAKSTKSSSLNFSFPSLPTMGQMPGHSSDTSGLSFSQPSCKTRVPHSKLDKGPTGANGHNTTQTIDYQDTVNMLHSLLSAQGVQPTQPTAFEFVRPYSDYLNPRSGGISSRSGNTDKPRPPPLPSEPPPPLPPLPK
Excerpt: as §1, §2

CDK7 = CDK7 (Homo sapiens, UniProt P50613); assay: KinaseProfiler (Millipore) kinase inhibition; format: biochemical; parameters: purchased KinaseProfiler of Millipore Corporation; conditions: 10 μM
Excerpt: as §1
as §2, with “binding).” for “binding). To determine the inhibition of which kinases correlates with the biological activity of SNX2-class compounds, we tested eight additional compounds of the SNX2 family, which gave different IC50 values in the cellular assays, for the ability to affect 24 kinases that were most susceptible to compound 1, through the services of KinomeScan.”

[6] = 10 μM, data from Cee et al. (2009)

## COc1cc2ncnc(Nc3ccc(F)c(Cl)c3)c2cc1OCCCN1CCOCC1 [gefitinib, reference compound]
[1]
  CDKI pathway inhibition: inactive

## cortistatin A
[2]
  IC50: 0.0018 µM
[3]
  IC50: 6 to 7 µM
CDK19 [4]; [6]
  POC, CDK19: 0.1 POC
CDK19 [4]; Cee et al. (2009)
  Kd: 0.01 µM
CLK4
  POC, CLK4: 26 POC
CIT
  POC, CIT: 28 POC
ROCK2; [6]
  POC, ROCK2 (ROCK II): 0 POC
ROCK2; Cee et al. (2009), read-out: Kd ROCK II
  Kd: 0.22 µM
LTK
  POC, LTK: 2.9 POC
ALK
  POC, ALK: 4.4 POC
PIM2
  POC, PIM2: 4.4 POC
PKACa
  POC, PKACa: 8.7 POC
PKACb
  POC, PKACb: 13 POC
MET
  POC, MET: 18 POC
PRKG2
  POC, PRKG2: 21 POC
RIOK2
  POC, RIOK2: 21 POC
ROCK1; [6]
  POC, ROCK1: 21 POC
ROCK1; Cee et al. (2009), read-out: Kd ROCK I
  Kd: 0.25 µM
ROS1
  POC, ROS1: 26 POC
JNK1
  POC, JNK1: 29 POC

## Ic1ccc2ncnc(NCCc3ccccc3)c2c1 [compound 3]
[1]; read-out: IC50, p21 induced by 8 μM IPTG, 8 μM IPTG, 72 hours
  IC50: 1.85 µM

## CC(C)Nc1ncnc2ccc(I)cc12 [SNX14]
[1]; Table 1, IC50 calculated on the basis of the maximal inhibition produced by the highest doses, IPTG mode (50 μM or 2 μM) not stated, read-out: Cell-based assay (IC50)
  IC50: 6.43 µM
CDK19 [5]
  Kd: 3.8 µM
CDK8
  Kd: 10 µM
CDK1
  percent of control (POC) activity, CDK1: ≥ 49% of control (POC)
CDK2
  percent of control (POC) activity, CDK2: ≥ 49% of control (POC)
CDK3
  percent of control (POC) activity, CDK3: ≥ 49% of control (POC)
CDK5
  percent of control (POC) activity, CDK5: ≥ 49% of control (POC)
CDK9
  percent of control (POC) activity, CDK9: ≥ 49% of control (POC)
CDK7
  percent of control (POC) activity, CDK7: ≥ 49% of control (POC)
